Laboratory results from patent US11427548B2 (Arvinas Operations, Inc., priority 2015, dated 2022).
Read-outs that look alike come from different tables or passages of the source.

Molecular target: T1, Androgen Receptor (Homo sapiens, UniProt P10275)
T1 construct: endogenous in cells; host or cells: VCaP cells
T1 sequence (P10275 1-920): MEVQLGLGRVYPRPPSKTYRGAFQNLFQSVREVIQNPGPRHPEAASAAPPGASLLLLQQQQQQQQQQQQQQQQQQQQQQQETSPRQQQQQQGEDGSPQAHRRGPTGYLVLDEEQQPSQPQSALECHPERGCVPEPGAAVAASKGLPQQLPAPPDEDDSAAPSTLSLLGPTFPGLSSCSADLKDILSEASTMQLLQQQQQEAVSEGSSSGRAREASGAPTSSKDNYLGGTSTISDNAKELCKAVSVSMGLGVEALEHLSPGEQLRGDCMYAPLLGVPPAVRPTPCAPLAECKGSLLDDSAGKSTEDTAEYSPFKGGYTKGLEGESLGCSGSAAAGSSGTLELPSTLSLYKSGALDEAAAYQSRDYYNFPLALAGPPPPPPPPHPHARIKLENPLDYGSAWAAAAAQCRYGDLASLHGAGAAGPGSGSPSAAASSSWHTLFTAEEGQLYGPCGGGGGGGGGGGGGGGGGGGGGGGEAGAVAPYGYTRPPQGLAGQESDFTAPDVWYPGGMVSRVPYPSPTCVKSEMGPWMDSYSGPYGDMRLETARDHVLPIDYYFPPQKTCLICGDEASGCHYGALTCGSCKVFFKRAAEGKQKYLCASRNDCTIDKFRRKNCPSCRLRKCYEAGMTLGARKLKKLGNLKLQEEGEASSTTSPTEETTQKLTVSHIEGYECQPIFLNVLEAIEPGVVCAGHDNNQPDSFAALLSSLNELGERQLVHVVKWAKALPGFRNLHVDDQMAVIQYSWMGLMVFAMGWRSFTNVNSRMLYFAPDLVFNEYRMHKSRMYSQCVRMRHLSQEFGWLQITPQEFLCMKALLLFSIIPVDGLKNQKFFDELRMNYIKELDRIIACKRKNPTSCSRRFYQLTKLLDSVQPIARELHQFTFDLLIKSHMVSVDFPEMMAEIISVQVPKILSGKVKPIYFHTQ
Test: Androgen Receptor ELISA assay (PathScan AR ELISA) in VCaP cells: AR degradation, Dmax and DC50
Assay type: cell-based
Method in brief: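 VCaP cells in phenol red-free RPMI with 5% charcoal-stripped FBS were grown at least 3 days, then given compound as 7 half-log doses in 0.1% DMSO with 0.1 nM R1881 for 24 h. Lysates went into a sandwich AR ELISA with TMB read at 450 nm.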

[1] = VCaP cells; Table 36; read-out: VCaP DC50
[2] = VCaP, VCaP cells; Table 36; read-out: VCaP Dmax (%)
[3] = read-out: VCaP DC50; VCaP cells; Table 36

Row | Structure (SMILES) | DC50 [1] [nM] | Dmax [2] [%] | Dmax (VCaP, read-out: VCaP Dmax (%)) [%] | DC50 [3] [nM] | other results
1 | Cc1ncsc1-c1ccc([C@H](C)NC(=O)[C@@H]2C[C@@H](O)CN2C(=O)[C@@H](NC(=O)COCCN2CCN(Cc3cc(C(=O)N[C@@H](C)Cn4ccc(-c5ccc(C#N)c(Cl)c5)n4)n[nH]3)CC2)C(C)(C)C)cc1 [Example 790, N-((S)-1-(3-(3-chloro-4-cyanophenyl)-1H-pyrazol-1-yl)propan-2-yl)-5-((4-(2-(2-(((S)-1-((2S,4R)-4-hydroxy-2-(((S)-1-(4-(4-methylthiazol-5-yl)phenyl)ethyl)carbamoyl)pyrrolidin-1-yl)-3,3-dimethyl-1-oxobutan-2-yl)amino)-2-oxoethoxy)ethyl)piperazin-1-yl)methyl)-1H-pyrazole-3-carboxamide] | > 501 | 26 to 50 |  |  | 
2 | Cc1ncsc1-c1ccc([C@H](C)NC(=O)[C@@H]2C[C@@H](O)CN2C(=O)[C@@H](C(C)C)n2cc(Oc3ccc(OC4CCC(Oc5ccc(N6C(=S)N(c7ccc(C#N)c(C(F)(F)F)c7)C(=O)C6(C)C)cc5)CC4)nc3)cn2)cc1 (stereo partly drawn) [Example 628, (2S,4R)-1-((R)-2-(4-((6-((4-(4-(3-(4-cyano-3-(trifluoromethyl)phenyl)-5,5-dimethyl-4-oxo-2-thioxoimidazolidin-1-yl)phenoxy)cyclohexyl)oxy)pyridin-3-yl)oxy)-1H-pyrazol-1-yl)-3-methylbutanoyl)-4-hydroxy-N-((S)-1-(4-(4-methylthiazol-5-yl)phenyl)ethyl)pyrrolidine-2-carboxamide] |  |  | 26 to 50 | > 501 | 
3 | Cc1ncsc1-c1ccc([C@H](C)NC(=O)C2C[C@@H](O)CN2C(=O)[C@@H](NC(=O)CCCC2(N3CCN(c4ccc(C(=O)N[C@H]5C(C)(C)[C@H](Oc6ccc(C#N)c(Cl)c6)C5(C)C)cn4)CC3)COC2)C(C)(C)C)cc1 (stereo partly drawn) [Example 803, N-((1r,3r)-3-(3-chloro-4-cyanophenoxy)-2,2,4,4-tetramethylcyclobutyl)-6-(4-(3-(4-(((S)-1-((2S,4R)-4-hydroxy-2-(((S)-1-(4-(4-methylthiazol-5-yl)phenyl)ethyl)carbamoyl)pyrrolidin-1-yl)-3,3-dimethyl-1-oxobutan-2-yl)amino)-4-oxobutyl)oxetan-3-yl)piperazin-1-yl)nicotinamide] | > 501 | 26 to 50 |  |  | 
4 | Cc1ncsc1-c1ccc(CNC(=O)[C@@H]2C[C@@H](O)CN2C(=O)[C@H](C(C)C)n2cc(OC3CCN(c4ccc(-c5ccc(N6C(=S)N(c7ccc(C#N)c(C(F)(F)F)c7)C(=O)C6(C)C)cc5)cn4)CC3)cn2)cc1 [Example 598, 1-(2-(4-((1-(5-(4-(3-(4-cyano-3-(trifluoromethyl)phenyl)-5,5-dimethyl-4-oxo-2-thioxoimidazolidin-1-yl)phenyl)pyridin-2-yl)piperidin-4-yl)oxy)-1H-pyrazol-1-yl)-3-mehtylbutanoyl)-4-hydroxy-N-(4-(4-methylthiazol-5-yl)benzyl)pyrrolidine-2-carboxamide] |  |  | 26 to 50 | > 501 | 
5 | Cc1ncsc1-c1ccc(CNC(=O)[C@@H]2C[C@@H](O)CN2C(=O)[C@@H](NC(=O)CCCOCCCOCCOc2ccc(N3C(=S)N(c4ccc(C#N)c(C(F)(F)F)c4)C(=O)C3(C)C)cc2)C(C)(C)C)cc1 [Example 315] |  |  | 26 to 50 |  | DC50 (read-out: VCaP DC50; VCaP cells; Table 34): 51 to 500 nM
6 | CC(C)[C@@H](C(=O)N1C[C@H](O)C[C@H]1C(=O)NCc1ccc(Cl)cc1)N1Cc2ccc(N3CCN(CCCc4ccc(C(=O)N[C@H]5C(C)(C)[C@H](Oc6ccc(C#N)c(C(F)(F)F)c6)C5(C)C)cc4)CC3)cc2C1=O [Example 770, (2S,4R)-N-(4-chlorobenzyl)-1-((S)-2-(6-(4-(3-(4-(((1r,3r)-3-(4-cyano-3-(trifluoromethyl)phenoxy)-2,2,4,4-tetramethylcylcobutyl)carbamoyl)phenyl)propyl)piperazin-1-yl)-1-oxoisoindolin-2-yl)-3-methylbutanoyl)-4-hydroxypyrrolidine-2-carboxamide] | > 501 | < 25 |  |  | 
7 | CC(C)(C)[C@H](NC(=O)COCCN1CCN(c2ccc(C(=O)N[C@H]3C(C)(C)[C@H](Oc4ccc(C#N)c(Cl)c4)C3(C)C)cn2)CC1)C(=O)N1C[C@H](O)C[C@H]1C(=O)NCc1ccc(C#N)cc1 [Example 736, N-((1r,3r)-3-(3-chloro-4-cyanophenoxy)-2,2,4,4-tetramethylcyclobutyl)-6-(4-(2-(2-(((S)-1-((2S,4R)-2-((4-cyanobenzyl)carbamoyl)-4-hydroxypyrrolidin-1-yl)-3,3-dimethyl-1-oxobutan-2-yl)amino)-2-oxoethoxy)ethyl)pipera-zin-1-yl)nicotinamide] | < 50 | 51 to 70 |  |  | 
8 | Cc1ncsc1-c1ccc(CNC(=O)[C@@H]2C[C@@H](O)CN2C(=O)[C@@H](C(C)C)n2cc(OCC#CC#CCOc3ccc(N4C(=S)N(c5ccc(C#N)c(C(F)(F)F)c5)C(=O)C4(C)C)cc3)cn2)cc1 (racemic) [Example 616, 1-(2-(4-((6-(4-(3-(4-cyano-3-(trifluoromethyl)phenyl)-5,5-dimethyl-4-oxo-2-thioxoimidazolidin-1-yl)phenoxy)hexa-2,4-diyn-1-yl)oxy)-1H-pyrazol-1-yl)-3-methylbutanoyl)-4-hydroxy-N-(4-(4-methylthiazol-5-yl)benzyl)pyrrolidine-2-carboxamide] |  |  | < 25 | > 501 | 
9 | Cc1ncsc1-c1ccc([C@H](C)NC(=O)C2C[C@@H](O)CN2C(=O)C(NC(=O)COCC(F)(F)C(F)(F)C(F)(F)COc2ccc(C(=O)N[C@H]3C(C)(C)[C@H](Oc4ccc(C#N)c(Cl)c4)C3(C)C)cc2)C(C)(C)C)cc1 (stereo partly drawn) [Example 688, (2S,4R)-1-((S)-2-(2-((5-(4-(((1r,3r)-3-(3-chloro-4-cyanophenoxy)-2,2,4,4-tetramethylcyclobutyl)carbamoyl)phenoxy)-2,2,3,3,4,4-hexafluoropentyl)oxy)acetamido)-3,3-diemthylbutanoyl)-4-hydroxy-N-((S)-1-(4-(4-methylthiazol-5-yl)phenyl)ethyl)pyrrolidine-2-carboxamide] |  |  | > 71 | < 50 | 
10 | Cc1ncoc1-c1ccc(CNC(=O)[C@@H]2C[C@@H](O)CN2C(=O)[C@@H](NC(=O)COCCCC(=O)Nc2ccc(-c3ccc(N4C(=S)N(c5ccc(C#N)c(C(F)(F)F)c5)C(=O)C4(C)C)cc3)cc2)C(C)(C)C)cc1 [Example 135, (2S,4R)-1-[(2S)-2-[2-(3-{[4-(4-{3-[4-cyano-3-(trifluoromethyl)phenyl]-5,5-dimethyl-4-oxo-2-sulfanylideneimidazolidin-1-yl}phenyl)phenyl]carbamoyl}pro-poxy)acetamido]-3,3-dimethylbutanoyl]-4-hydroxy-N-{[4-(4-methyl-1,3-oxazol-5-yl)phenyl]methyl}pyrrolidine-2-carboxamide] |  |  | 51 to 70 |  | DC50 (read-out: VCaP DC50; concentration that caused 50% Androgen Receptor degradation, VCaP cells (Table 32)): < 50 nM
11 | Cc1ncsc1-c1ccc([C@H](C)NC(=O)[C@@H]2C[C@@H](O)CN2C(=O)[C@@H](C(C)C)n2cc(-c3ccnc(OC4CN(c5ccc(C(=O)N[C@H]6C(C)(C)[C@H](Oc7ccc(C#N)c(Cl)c7)C6(C)C)cn5)C4)c3)cn2)cc1 [Example 595, N-((1r,3r)-3-(3-chloro-4-cyanophenoxy)-2,2,4,4-tetramethylcyclobutyl)-6-(3-((4-(1-((R)-1-((2S,4R)-4-hydroxy-2-(((S)-1-(4-(4-methylthiazol-5-yl)phenyl)ethyl)carbam-oyl)pyrrolidin-1-yl)-3-methyl-1-oxobutan-2-yl)-1H-pyrazol-4-yl)pyridin-2-yl)oxy)azetidin-1-yl)nicotinamide] | < 50 | 51 to 70 |  |  | 
